The record followed here is PMC7694948, “Mitochondrial Targeting in an Anti-Austerity Approach Involving Bioactive Metabolites Isolated from the Marine-Derived Fungus Aspergillus sp” (Marine Drugs, 2020).

The target in test [1] is Mitochondrial complex III (coenzyme Q cytochrome c oxidoreductase) (Bos taurus, UniProt P00125+P00157+P13272). The test can be described thus: MitoCheck Complex Activity Assay, complex III. The format is biochemical, bovine. As to conditions: for IC50: bovine heart mitochondria. How it is done:
(§1) The inhibitory activity of compound 1 on the mitochondrial electron transport chain (complexes I–V) was analyzed using MitoCheck Complex Activity Assay kits (Cayman Chemical) following the manufacturer’s instructions. The kits measured the enzymatic activity of each complex derived from bovine heart mitochondria in the following systems: Mitochondrial complex I (NADH oxidase/coenzyme Q reductase) activity was determined by measuring the decrease in NADH oxidation, which is reflected by a decrease in absorbance at 340 nm. Mitochondrial complex II (succinate dehydrogenase/coenzyme Q reductase) activity was assessed on the basis of the reduction rate of 2, 6-dichlorophenolindophenol (protonated by reduced coenzyme Q), which is reflected by a decrease in absorbance at 600 nm. Mitochondrial complex III (coenzyme Q cytochrome c oxidoreductase) activity was determined on the basis of the cytochrome c reduction rate, which is reflected by an increase in absorbance at 550 nm. Mitochondrial complex IV (cytochrome c oxidase) activity was determined by measuring the cytochrome c oxidation rate, which is reflected by a decrease in absorbance at 550 nm. Mitochondrial complex V (F1F0 ATP synthase) activity was determined by the NADH oxidation rate, which can be monitored at 340 nm.

The test system of test [2] is mitochondrial membrane potential of human pancreatic carcinoma PANC-1 cells. In words: Mitochondrial membrane potential (JC-1 MitoMP Detection Kit). The format is cell-based. As to conditions: PANC-1 adapted to glucose-deficient medium; 1 h treatment; JC-1 Red/Green ratio. The method, then: Figure 2 Effect of compounds 1 and 2 on the mitochondrial membrane potential of human pancreatic carcinoma PANC-1 cells. PANC-1 cells that adapted to glucose-deficient medium in the 96-well plates were treated with the indicated concentrations of the compounds for 1 h. Next, JC-1 working solution was added for measuring the mitochondrial membrane potential, and the plate was incubated for 30 min. The fluorescence intensity of the cells was measured using a Tecan Infinite M1000 microplate reader at Ex 485 nm and Em 535 nm (Green color fluorescence) and Ex 535 nm and Em 595 nm (Red color fluorescence). Differences were considered significant at * p < 0.05.
The mitochondrial membrane potential of PANC-1 cells was evaluated using the JC-1 MitoMP Detection Kit (Dojindo Laboratories) following the manufacturer’s instructions. […] The fluorescence intensity of the cells was assessed using an Infinite M1000 microplate reader (Tecan Group Ltd., Mannedorf, Switzerland) at Ex 485 nm and Em 535 nm (Green color fluorescence) and Ex 535 nm and Em 595 nm (Red color fluorescence). The ratio of the two fluorescence intensities (Red vs. Green) was then calculated.

Test [3] relates to oxygen consumption by PANC-1 cells. In words: Oxygen consumption (Oxygen Consumption Rate Assay Kit). It counts as cell-based, human. As to conditions: PANC-1 in general glucose medium. The method, then: Figure 3 Effect of compounds 1 and 2 on the oxygen consumption by PANC-1 cells. The precultured PANC-1 cells in the 96-well plates were incubated in general culture medium for 12 h at 37 °C. The medium was then replaced with fresh medium; subsequently, the test compound was added, followed by addition of the phosphorescent probe to measure the oxygen consumption. The signals were measured with a Tecan Infinite M1000 microplate reader by using the time-resolved mode. Differences were considered significant at * p < 0.05. CCCP: carbonyl cyanide m-chlorophenylhydrazone.
The oxygen consumption of PANC-1 cells was analyzed using the Oxygen Consumption Rate Assay Kit (Cayman Chemical) following the manufacturer’s instructions. Briefly, precultured PANC-1 cells (8.0 × 10^4 cells) in black/clear bottom 96-well plates (Corning Incorporated) were incubated for 12 h at 37 °C in general glucose medium. […] The signals were measured using an Infinite M1000 microplate reader (Tecan Group Ltd., Zurich, Switzrland) in the time-resolved mode at Ex 380 nm and Em 650 nm for 180 min, with a 1-min time interval. Linear regression was applied after subtracting the blank, and the oxygen consumption rate was determined by the slope of each signal profile.

Test [4] deals with T1, Mitochondrial complex IV (cytochrome c oxidase) (Bos taurus, UniProt P00396+P00415+P68530).
T1 construct: enzymatic activity of each complex derived from bovine heart mitochondria; purchased Cayman Chemical; host or cells: bovine heart mitochondria (tissue-derived, supplied in kit)
The test can be described thus: MitoCheck Complex Activity Assay, complex IV. The format is biochemical. As to conditions: bovine heart mitochondria. How it is done: as §1, with “The” for “The inhibitory activity of compound 1 on the mitochondrial electron transport chain (complexes I–V) was analyzed using MitoCheck Complex Activity Assay kits (Cayman Chemical) following the manufacturer’s instructions. The”

Test [5] has as its system human pancreatic carcinoma PANC-1 cells. In words: Cytotoxicity against PANC-1 cells under glucose-deficient or general culture conditions (WST-8). It counts as cell-based. The following applies: for IC50: Homo sapiens, 12 h treatment, WST-8. The method, then:
PANC-1 cells were maintained in DMEM supplemented with heat-inactivated 10% FBS and kanamycin (50 µg/mL) and grown at 37 °C in a 5% CO2 atmosphere. […] The general culture medium—that is, basal medium containing 10% FBS and […] glucose (final concentration, 25 mM)—was used for comparison. The assay was performed as previously described. Briefly, PANC-1 cells (1 × 10^4 cells/100 µL in 96-well plastic plates) were preincubated in DMEM containing 10% FBS for 24 h. The medium was then changed with either the general glucose medium or glucose-deficient medium to induce adaption to nutrient starvation. After 12-h incubation, serially diluted samples were added to the media. Then, the cells were incubated for an additional 12 h at 37 °C in a 5% CO2 atmosphere. Cell proliferation was identified using WST-8. The IC50 values were determined by linear interpolation of the growth inhibition curve. We assessed the selectivity of the antiproliferative activity (S.I.) on the basis of the difference in the IC50 values for the general culture and glucose-deficient media.
(Tetrazolium dyes change colour on reduction, which living cells bring about.)

Setting [6] is: PANC-1, glucose-deficient medium, 12 h adaptation.

Chain of Mitochondrial complex III (coenzyme Q cytochrome c oxidoreductase) (P00125 85-325): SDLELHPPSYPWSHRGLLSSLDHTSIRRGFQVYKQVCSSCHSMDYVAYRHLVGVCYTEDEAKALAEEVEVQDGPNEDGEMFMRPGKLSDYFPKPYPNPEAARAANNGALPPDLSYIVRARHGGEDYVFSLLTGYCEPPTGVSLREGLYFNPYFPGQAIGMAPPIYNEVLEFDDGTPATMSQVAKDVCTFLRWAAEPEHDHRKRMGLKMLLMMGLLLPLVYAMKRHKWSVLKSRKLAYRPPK
Chain of Mitochondrial complex III (coenzyme Q cytochrome c oxidoreductase) (P00157 whole entry): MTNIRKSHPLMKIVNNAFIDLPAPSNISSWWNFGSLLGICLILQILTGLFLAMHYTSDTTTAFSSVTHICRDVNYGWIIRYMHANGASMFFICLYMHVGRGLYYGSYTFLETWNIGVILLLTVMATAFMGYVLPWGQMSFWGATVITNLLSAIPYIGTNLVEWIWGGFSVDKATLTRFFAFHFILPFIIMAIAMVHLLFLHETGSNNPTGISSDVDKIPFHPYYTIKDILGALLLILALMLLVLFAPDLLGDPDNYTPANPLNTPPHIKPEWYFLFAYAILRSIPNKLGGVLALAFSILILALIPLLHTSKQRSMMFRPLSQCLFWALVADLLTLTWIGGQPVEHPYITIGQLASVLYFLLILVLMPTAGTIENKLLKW
Chain of Mitochondrial complex III (coenzyme Q cytochrome c oxidoreductase) (P13272 whole entry): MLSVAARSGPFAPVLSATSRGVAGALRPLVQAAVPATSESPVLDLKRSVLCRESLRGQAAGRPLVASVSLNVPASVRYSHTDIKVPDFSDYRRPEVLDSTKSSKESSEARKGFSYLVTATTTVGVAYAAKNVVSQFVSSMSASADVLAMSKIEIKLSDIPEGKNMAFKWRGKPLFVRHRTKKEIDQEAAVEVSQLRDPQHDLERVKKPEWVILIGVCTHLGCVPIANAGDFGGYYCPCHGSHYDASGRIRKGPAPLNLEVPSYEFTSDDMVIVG

Take `C/C=C/C=C/c1cc2c(C=O)c(O)c(CC=C(C)C)cc2o1` [Compound 2, 2-(2′,3-epoxy-1′,3′,5′-heptatrienyl)-6-hydroxy-5-(3-methyl-2-butenyl) benzaldehyde]: 100 µM produced 6% inhibition in test [1]. In addition, the IC50 in test [1] was greater than 100 µM; in test [4], 20 ± 0.3 µM; in test [5] (PANC-1, general glucose medium), 859 ± 1 µM; in test [5] (setting [6]) it was 1.7 ± 0.05 µM. Also, the “effect on mitochondrial membrane potential” value in test [2] is on record as “dose-dependently decrease”. The “effect on oxygen consumption” value in test [3] was “inhibit oxygen consumption to a similar extent as antimycin A”. In test [5] (PANC-1), the “selective growth-inhibitory activity under glucose-deficient vs general culture conditions” value is given as 505 fold.

For `COc1cc(O)c2c(c1)C(=O)c1cc(C)cc(O)c1C2=O` [Compound 1, physcion], at 100 µM the inhibition in test [1] was 9%. Besides, the IC50 in test [1] is greater than 100 µM; in test [4], 34 ± 0.3 µM; in test [5] (PANC-1, general glucose medium) it was 1017 ± 0.05 µM; in test [5] (setting [6]), 6 ± 0.1 µM. Further, the “effect on mitochondrial membrane potential” value in test [2] is “dose-dependently decrease”. The “effect on oxygen consumption” value in test [3] is listed as “inhibit oxygen consumption to a similar extent as antimycin A”. Also, the “S.I. (selectivity index)” value in test [5] (difference in IC50 values for general culture and glucose-deficient media) turned out to be 169.5.

For orientation: inhibition means the relative decrease from the control value, in per cent. A high value points to strong suppression. As usually defined, the IC50 is the concentration at which inhibition is half-maximal.
